Drawing on ChEMBL document CHEMBL3400049, “Design strategies to address kinetics of drug binding and residence time” (Bioorg Med Chem Lett, 2015), this text covers TIME and T1/2 for 6 molecules.

For assay [1], the target named is Histone-lysine N-methyltransferase EZH2 (Homo sapiens) (UniProt Q15910). The assay is described as follows: Binding affinity to EZH2 (unknown origin) assessed as residence time.
Assay [2] concerns the target CDK8/Cyclin C (Homo sapiens) (UniProt P49336+P24863). The assay is described as follows: Binding affinity to CDK8/CycC (unknown origin) assessed as residence time. The class given is protein-complex assay.
The target of assay [3] is T1, Fatty-acid amide hydrolase 1 (Homo sapiens) (UniProt O00519).
T1 sequence (whole entry): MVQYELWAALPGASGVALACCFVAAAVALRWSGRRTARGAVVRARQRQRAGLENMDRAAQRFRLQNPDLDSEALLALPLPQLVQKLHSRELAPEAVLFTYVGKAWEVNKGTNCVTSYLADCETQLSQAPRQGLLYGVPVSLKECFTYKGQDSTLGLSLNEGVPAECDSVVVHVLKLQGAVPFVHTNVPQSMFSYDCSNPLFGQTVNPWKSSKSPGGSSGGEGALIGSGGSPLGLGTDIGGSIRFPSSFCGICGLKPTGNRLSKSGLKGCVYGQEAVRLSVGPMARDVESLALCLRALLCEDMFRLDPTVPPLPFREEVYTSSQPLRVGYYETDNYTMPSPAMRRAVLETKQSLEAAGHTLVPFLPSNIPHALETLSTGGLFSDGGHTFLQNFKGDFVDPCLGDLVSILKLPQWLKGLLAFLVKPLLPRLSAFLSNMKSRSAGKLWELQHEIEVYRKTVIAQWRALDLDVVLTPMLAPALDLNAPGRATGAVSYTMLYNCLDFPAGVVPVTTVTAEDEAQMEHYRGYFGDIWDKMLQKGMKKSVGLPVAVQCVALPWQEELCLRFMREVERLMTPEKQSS
The assay is described as follows: Inhibition of recombinant human FAAH assessed as dissociation half life.

The structures appear in SMILES notation.

Sequence of Histone-lysine N-methyltransferase EZH2 (Homo sapiens) (Q15910 whole entry, looked up): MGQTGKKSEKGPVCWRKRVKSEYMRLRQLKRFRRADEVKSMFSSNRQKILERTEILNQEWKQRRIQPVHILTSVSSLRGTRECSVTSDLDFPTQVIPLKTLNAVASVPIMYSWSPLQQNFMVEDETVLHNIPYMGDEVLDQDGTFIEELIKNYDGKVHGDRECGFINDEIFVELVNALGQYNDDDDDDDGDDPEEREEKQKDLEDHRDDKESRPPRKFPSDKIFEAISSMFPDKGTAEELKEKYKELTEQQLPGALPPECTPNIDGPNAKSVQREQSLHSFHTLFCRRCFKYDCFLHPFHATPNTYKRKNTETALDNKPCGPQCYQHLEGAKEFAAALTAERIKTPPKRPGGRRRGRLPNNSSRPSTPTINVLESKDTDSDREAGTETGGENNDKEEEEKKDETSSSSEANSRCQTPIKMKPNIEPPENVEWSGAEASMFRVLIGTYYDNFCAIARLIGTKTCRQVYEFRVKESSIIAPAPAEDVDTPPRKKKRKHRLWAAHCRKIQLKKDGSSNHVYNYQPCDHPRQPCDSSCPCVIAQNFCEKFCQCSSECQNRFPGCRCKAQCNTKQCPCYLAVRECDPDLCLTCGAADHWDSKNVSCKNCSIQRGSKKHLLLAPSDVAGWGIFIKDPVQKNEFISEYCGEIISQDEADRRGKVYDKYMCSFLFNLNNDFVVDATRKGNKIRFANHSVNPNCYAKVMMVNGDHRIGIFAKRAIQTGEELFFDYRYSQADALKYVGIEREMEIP

Consider `Cc1ccc(CNC(=O)c2cc(-c3ccnc(N4CCN(C)CC4)c3)cc3c2ccn3C(C)C)c(=O)[nH]1`, for which the TIME in assay [1] is 1.03 h.

As for `Cc1ccc(-n2nc(C(C)(C)C)cc2NC(=O)NCCN2CCOCC2)cc1`, the TIME in assay [2] was < 0.0233 h.

On to `O=C(CCCCCCc1ccccc1)c1ncc(-c2ccccn2)o1`, for which the T1/2 in assay [3] is > 10 h. `Cc1ccc(-n2nc(C(C)(C)C)cc2NC(=O)NCCN2CCN(C(=O)Nc3cc(C(C)(C)C)nn3-c3ccc(C)cc3)CC2)cc1`: in assay [2], the TIME was 27.1 h.

Regarding `CCCc1cc(C)[nH]c(=O)c1CNC(=O)c1cc(-c2ccnc(N3CCN(C)CC3)c2)cc2c1ccn2C(C)C`, in assay [1], the TIME was found to be 0.717 h. `O=C(CCCCCCc1ccccc1)c1nc2ncccc2o1`: in assay [3], the T1/2 is > 10 h.
